Measured values as given in ChEMBL document CHEMBL1201862, “PubChem BioAssay data set” (2004).
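Compound exposure: 48 hours, 5 concentrations, 96-well plates. Here, GI50 denotes the concentration required for 50% inhibition of growth.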 Activity calls are given as the source filed them. Cut-off read from the data, not from the text of the source: active = GI50 up to about 1.1 µM and inactive = higher.

Key:
Assay in all cases: NCI-60 cell line screen, 48 h
[1] = tested on: A549
[2] = tested on: CCRF-CEM
[3] = tested on: HCC 2998
[4] = tested on: HCT-116
[5] = tested on: HOP-62
[6] = tested on: K562
[7] = tested on: MOLT-4
[8] = tested on: NCI-H460
[9] = tested on: OVCAR-5
[10] = tested on: OVCAR-8
[11] = tested on: RPMI-8226
[12] = tested on: SF-268
[13] = tested on: SF-295
[14] = tested on: SK-MEL-5
[15] = tested on: SN12C
[16] = tested on: SNB-19
[17] = tested on: U-251
[18] = tested on: Malme-3M
[19] = tested on: NCI-H23
[20] = tested on: OVCAR-3

Measured: GI50

O=[N+]([O-])c1ccc(C2=Nc3ccccc3SC(c3ccccc3)C2)cc1 (stereo not drawn)
inactive: [1] 20.4 µM | [2] 14.7 µM | [3] 15.2 µM | [4] 11.9 µM | [5] 20.7 µM | [6] 15.8 µM | [7] 15.1 µM | [8] 20.6 µM | [9] 19.5 µM | [10] 20.8 µM | [11] 14.8 µM | [12] 24.7 µM | [13] 20.2 µM | [14] 18.1 µM | [15] 17 µM | [16] 17 µM | [17] 13.1 µM

CN1C2CCC1CC(C)(O)C2 (stereo not drawn)
inactive: [2] > 100 µM | [3] > 100 µM | [4] > 100 µM | [5] > 100 µM | [6] > 100 µM | [7] > 100 µM | [18] > 100 µM | [19] > 100 µM | [8] > 100 µM | [20] > 100 µM | [10] > 100 µM | [11] > 100 µM | [12] > 100 µM | [13] > 100 µM | [15] > 100 µM | [16] > 100 µM | [17] > 100 µM

COC(=O)c1ccc(/C=C2\N=C(C)OC2=O)cc1
inactive: [1] > 100 µM | [2] > 100 µM | [3] > 100 µM | [4] > 100 µM | [5] > 100 µM | [6] > 100 µM | [7] > 100 µM | [19] > 100 µM | [8] > 100 µM | [20] > 100 µM | [9] > 100 µM | [10] > 100 µM | [11] > 100 µM | [12] > 100 µM | [13] > 100 µM | [14] > 100 µM | [15] > 100 µM | [16] > 100 µM | [17] > 100 µM

O=CCCn1[nH]c(=O)ccc1=O
inactive: [1] > 100 µM | [2] > 100 µM | [3] > 100 µM | [4] > 100 µM | [6] > 100 µM | [7] > 100 µM | [18] > 100 µM | [19] > 100 µM | [8] > 100 µM | [20] > 100 µM | [9] > 100 µM | [10] > 100 µM | [11] > 100 µM | [12] > 100 µM | [13] > 100 µM | [14] > 100 µM | [15] > 100 µM | [16] > 100 µM | [17] > 100 µM

CNc1ccccc1-c1nc2ccccc2c(=O)o1
inactive: [1] > 100 µM | [2] > 100 µM | [3] > 100 µM | [4] > 100 µM | [6] > 100 µM | [7] > 100 µM | [18] > 100 µM | [8] > 100 µM | [9] > 100 µM | [10] > 100 µM | [11] > 100 µM | [12] 32 µM | [13] 41.2 µM | [14] > 100 µM | [15] > 100 µM | [16] > 100 µM | [17] > 100 µM

CC(=O)/N=C1/N(/C=C2\C(=O)Oc3ccccc3C2=O)C(=O)/C(=C/c2ccc(OC(C)=O)cc2)N1C
inactive: [1] > 100 µM | [2] > 100 µM | [3] > 100 µM | [4] > 100 µM | [5] > 100 µM | [6] > 100 µM | [7] > 100 µM | [18] > 100 µM | [19] > 100 µM | [8] > 100 µM | [20] 83.4 µM | [9] > 100 µM | [10] > 100 µM | [11] > 100 µM | [12] > 100 µM | [13] > 100 µM | [14] > 100 µM | [15] > 100 µM | [17] > 100 µM

CN(C)C(=O)C1CCC(=C2C(=O)OC(C)(C)OC2=O)N1C (stereo not drawn)
inactive: [1] > 100 µM | [2] > 100 µM | [3] > 100 µM | [4] > 100 µM | [5] > 100 µM | [6] > 100 µM | [7] > 100 µM | [18] > 100 µM | [19] > 100 µM | [8] > 100 µM | [20] > 100 µM | [9] > 100 µM | [10] > 100 µM | [12] > 100 µM | [13] > 100 µM | [14] > 100 µM | [15] > 100 µM | [16] > 100 µM | [17] > 100 µM

CN(N)c1nc(N)c(C#N)c(C#N)c1C#N
inactive: [1] > 10 µM | [2] > 10 µM | [3] > 10 µM | [4] > 10 µM | [5] > 10 µM | [6] > 10 µM | [7] > 10 µM | [18] > 10 µM | [19] > 10 µM | [20] > 10 µM | [9] > 10 µM | [10] > 10 µM | [11] > 10 µM | [12] > 10 µM | [13] > 10 µM | [14] > 10 µM | [15] > 10 µM | [16] > 10 µM | [17] > 10 µM

CC1(C)CC[C@]2(C)CC[C@]3(C)C(=CC[C@@H]4[C@@]5(C)CCC(=O)C(C)(C)[C@@H]5[C@H](O)C[C@]43C)[C@@H]2C1
inactive: [1] 20.3 µM | [2] 30.8 µM | [3] 15.5 µM | [4] 16.3 µM | [5] 17 µM | [7] 31.5 µM | [18] 17.5 µM | [19] 19.5 µM | [8] 18 µM | [20] 16.5 µM | [9] 16 µM | [10] 18.9 µM | [11] 23 µM | [12] 17.8 µM | [13] 17.6 µM | [14] 17.4 µM | [15] 15.1 µM | [16] 15.3 µM | [17] 16.9 µM

O=C(O)C(Cc1ccc(O)cn1)NC(=O)C(F)(F)F (stereo not drawn)
inactive: [1] > 100 µM | [2] > 100 µM | [3] > 100 µM | [4] > 100 µM | [5] > 100 µM | [6] > 100 µM | [18] > 100 µM | [19] > 100 µM | [8] > 100 µM | [20] > 100 µM | [9] > 100 µM | [10] > 100 µM | [11] > 100 µM | [12] > 100 µM | [13] > 100 µM | [14] > 100 µM | [15] > 100 µM | [16] > 100 µM | [17] > 100 µM

CCc1ccc(Nc2cc(=O)[nH]c(=S)n2C)cc1
inactive: [1] > 100 µM | [2] > 100 µM | [4] > 100 µM | [5] > 100 µM | [6] > 100 µM | [7] > 100 µM | [18] > 100 µM | [19] > 100 µM | [8] > 100 µM | [20] > 100 µM | [9] > 100 µM | [10] > 100 µM | [11] > 100 µM | [12] > 100 µM | [13] > 100 µM | [14] > 100 µM | [15] > 100 µM | [16] > 100 µM | [17] > 100 µM
